One compound from patent US9957566B2, “Screening method” (THE UNIVERSITY OF BIRMINGHAM, priority 2009, dated 2018) can be followed below.

SMILES strings stand for the structures.

Assay [1] relates to peripheral lymphocytes. Description: Lymphocyte culture with or without rapamycin, flow cytometry cell cycle analysis (TG1). Format: cell-based, human. To be noted: 100 ng/ml rapamycin, 24 hours. How it is done:
(§1) Peripheral lymphocytes (thawed from storage as appropriate) were cultured in a growth medium of RPMI 1640 supplemented with 15% FCS (heat inactivated), plus 2% I-glutamine and 1% penicillin/streptamycin, in the presence of 2.5% phytohaemagglutinin (PHA) for 48 hours at 37° C., 5% CO2, to reach exponential growth. Cultures were prepared in a 96 well plate format, with 6 or 8 wells allocated to each patient (test subject). One single plate could therefore hold eleven sets of patient samples, plus one set of standard samples.
(§2) Once exponential growth of the cells was achieved, the lymphocyte cultures were treated with either growth medium (as above) alone, or the same growth medium plus 100 ng/ml rapamycin, in triplicate/quadruplicate for each patient.
(§3) Cell cultures were harvested after 24 hours. Samples intended for cytotoxicity testing (LDH assay) were frozen at −20° C., whereas samples intended for analysis by flow cytometry were fixed in 85% cold ethanol.
96-well plate lymphocytes cultures (with or without rapamycin) fixed in ethanol (end of step 3) were spun at 400 g for 10 minutes at RT with no breaks. Supernatants were removed and the cell pellets resuspended in 0.300 ml ice-cold PBS/well. The plates were spun again at 400 g for 10 minutes at RT with no breaks. Supernatants were again removed and the cell pellets re-suspended in 0.080 ml of propidium iodide (P1) staining solution/well.
The flow cytometer (FacsCalibur BD) was set up to distinguish well between the G1 and G2 peaks (at least 200 units apart).
Using as a Marker measure the PI reading equivalent to the G1 peak and the G2 peak the parameter X was calculated based on the relation: X=(G2peak−G1peak)/4
(§4) The LDH cytotoxicity assay gave a value for total cell numbers in each lymphocyte culture (with or without rapamycin). […]
[formula] fG1 is the proportion of cells in the G1 phase of the cell cycle as measured by flow cytometry.
Finally, TG1 values calculated for rapamycin treated and untreated lymphocyte cultures from the same test subject were compared.

Assay [2] concerns peripheral lymphocytes. The assay can be described thus: Lymphocyte culture with or without rapamycin, LDH cytotoxicity assay for number of cell divisions. Type of assay: cell-based, human. Particulars: 100 ng/ml rapamycin, 24 hours. The protocol:
as §1, §2, §3
Measurement of cell numbers in the cell cultures prepared in 3) was carried out by LDH cytotoxicity assay using the CytoTox 96® Non-Radioactive Cytotoxicity Assay Kit from Promega, according to the instructions supplied by the manufacturer.
The assays were set up in 96-well plate format, using 30 μl of lymphocyte culture and 50 μl of LDH substrate mix per well (substrate mix is a component of the CytoTox kit, diluted prior to use). Patient samples cultured with or without rapamycin were each tested in triplicate. The assay plates also included diluted standards of LDH positive control (serial dilutions of LDH positive control in lymphocyte culture medium; triplicate samples of 30 μl at each of 1:2500, 1:5000, 1:10,000, 1:20,000, 1:40,000, 1:80,000 and 1:160,000 dilution), to allow construction of a calibration curve.
The reactions were then stopped by adding 50 μl of cold Stop Solution (component of the CytoTox kit) to each well. Optical density was then read at 490 nm.
as §4

Where [3] appears, read: subjects with 0 ApoE4 alleles (n=54).
Setting [4] is: subjects with 1 ApoE4 allele (n=38).
Setting [5] is: subjects with 2 ApoE4 alleles (n=8).

On to `CO[C@H]1C[C@@H]2CC[C@@H](C)[C@@](O)(O2)C(=O)C(=O)N2CCCC[C@H]2C(=O)O[C@H]([C@H](C)C[C@@H]2CC[C@@H](O)[C@H](OC)C2)CC(=O)[C@H](C)/C=C(\C)[C@@H](O)[C@@H](OC)C(=O)[C@H](C)C[C@H](C)/C=C/C=C/C=C/1C` [Rapamycin, rapamycin], for which the “TG1 Rapa = length of the G1 time under the effect of Rapamycin (mean)” value was 13.9944 with peripheral lymphocytes [1] (setting [3]), 13.7038 with peripheral lymphocytes [1] (setting [4]) and 13.1059 in the assay with peripheral lymphocytes [1] (setting [5]). Moreover, the “n rapa/n = change in the number of cell divisions under the effect of Rapamycin relative to control cultures from the same individual (mean)” value amounted to 1.3044 in the assay on peripheral lymphocytes [2] (setting [3]), 1.3775 in the assay with peripheral lymphocytes [2] (setting [4]) and 1.4624 with peripheral lymphocytes [2] (setting [5]).
